# Data published in patent US20080032952A1, “Combination Therapies Employing Nicotinic Acid Derivatives or Fibric Acid Derivatives” (priority 2004, published 2008).
# Test system: patients who underwent percutaneous coronary intervention (PCI)
# Format: in vivo
# Description: Data collection and statistical analyses—Patients who received ≧1 dose of the study drug and underwent PCI were analyzed for all primary and secondary efficacy and safety end points. […] Statistical tests were 2-sided with an a level of 0.05 and employed the intent-to-treat principle. The Wilcoxon rank-sum test was used. Due to small sample sizes, categorical variables were compared using the Fisher's exact test with the exception of the ST-segment monitoring data, which utilized the Pearson's chi-square test. Statistical analyses were performed using SAS version 8.2 (SAS Institute, Cary, N.C.).
structure (smiles),measurement,setting,value
"Cc1ncc(COP(=O)(O)O)c(C=O)c1O [P5P, pyridoxal 5′-phosphate]",median periprocedural CK-MB area under the curve (periprocedural infarct size),"10 mg/kg oral ≧4 hours before PCI, then 5 mg/kg twice daily, CK-MB over 24 hours, p=0.038 vs placebo",18.6 ng/mL
same,rate of post-PCI ischemia,"continuous ST monitoring within 24 hours after PCI, p=0.78 vs placebo",14.7%
